In assay [1] the test system is β-amyloid fibrils or oligomers. To be noted: as disclosed in a research paper; cited from earlier work.
For assay [2], the system named is Alzheimer's disease transgenic mouse. As to the kind of experiment: Fear conditioning-contextual test. Format: in vivo. The following applies: 1 mg/kg of each drug, after the 13 weeks of Example 1. The text has this: (§1) To observe the effects of the combination of EPPS and donepezil, the experimental animal subjected to the Y-maze behavior test for 13 weeks in Example 1 was subjected to a fear conditioning test for testing fearful memory of space and sound.
(§2) The fear conditioning test was divided into a fear conditioning-contextual test that tests fearful memory of space and fear conditioning-cued test that tests fearful memory of sound.
(§3) The test included a pair of sound stimulation (CS(conditioned stimulus), 30 seconds, 85 dB, and 30 kHz) and electric shock (US(unconditioned stimulus), 1 second, and 0.5 mA), which was repeated twice. Each was performed with a term of 90 seconds and the mouse was taken out from the conditioning box 90 seconds after the last electric shock (US). The following tests were performed after 24 hours.
Contextual test: the experimental animal was maintained in the conditioning box and freeze response were measured without providing sound stimulation and electric shock, results of which were used as a scale of conditioned fearful reaction. The freeze reaction was defined as a motionless state, except for breathing.

Assay [3] shares this test system. As to the kind of experiment: Y-maze behavior test (spontaneous alternation). The format is in vivo. To be noted: B6C3-Tg(APPswe, PSEN1dE9) mouse, 1 mg/kg of each drug orally every day, Y-maze once every week for 13 weeks. The method, then:
To test the effects of a combination of EPPS and donepezil, a Y-maze behavior test for evaluating learning memory of an Alzheimer's disease transgenic mouse was performed.
10 months old B6C3-Tg(APPswe, PSEN1dE9)85Dbo/Mmjax (The Jackson Laboratory, the U.S.A.) was used as the Alzheimer's disease transgenic mouse, as an experimental animal. The experimental animal was divided into three groups, namely, a donepezil administered group, an EPPS administered group, and a combination of donepezil and EPPS administered group were orally administered with respective drugs everyday in the amounts shown in Table 1 below and the Y-maze test was performed once every week for 13 weeks. As a control group, a transgenic mouse that was not administered with a drug was used as a negative control group and a normal mouse that was not administered with a drug was used as a positive control group.
The Y-maze instrument includes a maze made of a black acrylic board [branches: width 6 cm, length 40 cm, and height 12 cm] having a Y-shape in which all corners were blocked and each branch was disposed at a uniform angle of 120°. […] Frequencies and sequences of the experimental animal moving into each branch were measured to evaluate spontaneous alternation (%). […]

Assay [4] has the same test system. As to the kind of experiment: Fear conditioning-cued test. Format: in vivo. The following applies: 1 mg/kg of each drug, after the 13 weeks of Example 1.
Description: as §1, §2, §3
Cued test: To change the context after 24 hours of the contextual test, the mouse was put into a box other than the box used for the contextual test and was provided with a sound stimulation identical to the contextual test (electric shock was not provided) to measure freeze reactions. The results were used as a scale for fear response conditioned to the cues.

Entries after “also recorded” stand apart in the source; their conditions may differ.

In the case of `O=S(=O)(O)CCCN1CCN(CCO)CC1` [EPPS, N-(2-hydroxyethyl)piperazine-N′(3-propanesulfonic acid)], the “effect on accumulation of β-amyloid fibrils or oligomers” value in assay [1] is “inhibits the accumulation of β-amyloid fibrils or oligomers and decomposes the accumulated β-amyloid fibrils or oligomers”. Further, the “Average freeze response, contextual test” value in assay [2] stood at 34.437. In addition, in assay [3], the “improvement in cognitive skills (normalized % alternation rate, FIG. 1)” value was “gradual improvement in the cognitive skills compared with that of the donepezil administered group; also recorded: reached the same level of cognitive skills as the donepezil administered group at 10 weeks; also recorded: long-term improvement in cognitive skills but a slower improvement compared with donepezil and a lower improvement compared with the combination of EPPS and donepezil”. Also, the “Average freeze response, cued test” value in assay [4] is reported as 55.1042.
In the case of `COc1cc2c(cc1OC)C(=O)C(CC1CCN(Cc3ccccc3)CC1)C2` (stereo not shown) [donepezil, reference compound], the “Average freeze response, contextual test” value in assay [2] is on record as 16.602. The “improvement in cognitive skills (normalized % alternation rate, FIG. 1)” value in assay [3] is “initially showed a rapid improvement in cognitive skills, but the improvement reached peak at 5 weeks and decreased at 7 weeks; also recorded: rapid but short-term improvement in cognitive skills”. Moreover, the “Average freeze response, cued test” value in assay [4] is 58.9167.

Values taken from patent US20150005306A1 (priority 2013, published 2015).
